Measured values: patent US20100099730A1, “ANNELLATED PYRROLE COMPOUNDS FOR CANCER MANAGEMENT” (MERCKLE GMBH, priority 2006, published 2010)

Assays:
[1] = tested on: LTB4 production by HCA-7 cells; assay: LTB4 level in HCA-7 culture medium, enzyme immunoassay; format: cell-based, human; settings: 150 μM, 24 hours, serum-free medium
Procedure: (§1) For treatment with licofelone ([…] GmbH, Ulm, Germany), exponentially growing cells were trypsinized, seeded in regular medium (2×10^4 cells/well in 96-well plates; 1.2×10^5 cells/well in 24-well plates; 6×10^5 cells/well in 6-well plates; 1.5×10^6 cells in 25 cm^2 flasks) and incubated for 24 h. The medium was then replaced either with control medium or with medium containing 100, 125 or 150 μM licofelone. This drug was dissolved in dimethyl sulfoxide (DMSO) and diluted into the medium to obtain the required final concentration before each experiment. Fresh medium, alone or supplemented with licofelone, was completely replaced every 48 hours. To control for an effect of DMSO, control samples were treated in parallel with an equivalent concentration of this solvent. For determination of PGE2 and LTB4 production, HCA-7 were seeded in a 24-well plates at the density of 1.2×10^5 cells/well and grown in complete medium for 24 hours. Cells were then serum-starved overnight before being exposed to increasing doses of licofelone (100-150 μM) in serum-free medium for additional 24 hours. The harvested medium was centrifuged at 500×g for 5 min (4° C.) to remove floating cells and the supernatant was collected and assayed following customer instructions. The levels of PGE2 and LTB4 were measured by enzyme immunoassay. Results are expressed as picograms/ml of medium. […]

[2] = Plasma ML3000 level after immediate release dosage form; format: in vivo; settings: for 8 hours
[3] = tested on: HCA-7 cells; assay: Cell-cycle distribution by flow cytometry (propidium iodide), sub-G1 cells; format: cell-based, human; settings: 0-150 μM, after 48 hours of treatment
Procedure: For treatment with licofelone ([…] GmbH, Ulm, Germany), exponentially growing cells were trypsinized, seeded in regular medium (2×10^4 cells/well in 96-well plates; 1.2×10^5 cells/well in 24-well plates; 6×10^5 cells/well in 6-well plates; 1.5×10^6 cells in 25 cm^2 flasks) and incubated for 24 h. The medium was then replaced either with control medium or with medium containing 100, 125 or 150 μM licofelone. This drug was dissolved in dimethyl sulfoxide (DMSO) and diluted into the medium to obtain the required final concentration before each experiment. Fresh medium, alone or supplemented with licofelone, was completely replaced every 48 hours. To control for an effect of DMSO, control samples were treated in parallel with an equivalent concentration of this solvent. The cell-cycle distribution for control and drug-treated cells was determined after 24 and 48 hours of treatment. Cells were seeded at the density of 6×10^5 cells/well onto 6-well plates and allowed to adhere for 24 h. Cells were then incubated with licofelone for 24 and 48 hours and then harvested by trypsinization. […] Subsequently, DNA content was measured using a flow cytometer and the cell-cycle distribution was calculated using the Phoenix Multicycle for Windows cell-cycle analysis software. A minimum of 10'000 events were measured for each sample.

[4] = tested on: HCA-7 cells; assay: Cell morphology: phase-contrast and Hoechst 33342 fluorescence microscopy; format: cell-based, human; settings: licofelone 150 μM
Procedure: Morphological changes in the nuclear chromatin of cells undergoing apoptosis were detected by staining with the DNA-binding fluorochrome bis-benzimide stain. Briefly, HCA-7 were seeded in a flat-bottomed 96-well plate at the density of 2×10^4 cells/well and grown for 24 hours in complete medium. Cells where then cultured in the presence or absence of licofelone 150 μM at the indicated times; at the end of incubation, Hoechst 33342 (1 μg/ml) was added to each well for at least 20 min. at 37° C. HCA-7 cells were then washed with phosphate-buffered saline (PBS), fixed in 4% formaldehyde and observed under a fluorescence microscope.

[5] = tested on: HCA-7 cells; assay: MTT reduction assay, HCA-7 survival/proliferation; format: cell-based, human
Procedure: LS174T and CACO-2 were a generous gift of Prof. F. Dall'Olio (Dept. of Experimental Pathology, University of Bologna, Italy); HCA-7 cells were purchased from European Collection of Cell Cultures. These lines were cultured in Dulbecco's modified Eagle's Medium with 4.5 g/L glucose (DMEM), supplemented with 10% (v/v) heat-inactivated FBS, 2 mM L-glutamine, 100 U/ml penicillin and 100 μg/ml streptomycin. Cells were grown in monolayers, incubated at 37° C. in a humidified atmosphere of 95% air and 5% CO2 and routinely passaged using trypsin-EDTA 0.025%. For treatment with licofelone ([…] GmbH, Ulm, Germany), exponentially growing cells were trypsinized, seeded in regular medium (2×10^4 cells/well in 96-well plates; 1.2×10^5 cells/well in 24-well plates; 6×10^5 cells/well in 6-well plates; 1.5×10^6 cells in 25 cm^2 flasks) and incubated for 24 h. The medium was then replaced either with control medium or with medium containing 100, 125 or 150 μM licofelone. This drug was dissolved in dimethyl sulfoxide (DMSO) and diluted into the medium to obtain the required final concentration before each experiment. Fresh medium, alone or supplemented with licofelone, was completely replaced every 48 hours. To control for an effect of DMSO, control samples were treated in parallel with an equivalent concentration of this solvent. The effect of licofelone on HCA-7 survival/proliferation was determined colourimetrically using the MTT assay. MTT is a yellow-coloured tetrazolium salt that is taken up and cleaved only by metabolically active cells, which reduce it to a coloured, water-insoluble formazan salt. The solubilized formazan product can be quantified via absorbance at 570 nm measured using a 96-well-format spectrophotometer and the absorbance correlates directly with cell number. 2×10^4 cells/well were plated in a 100 μl volume in 96-well plates and grown for 24 h in DMEM supplemented with 10% FBS. Complete medium containing the indicated amount of licofelone, alone or in association with exogenous PGE2 and/or LTB4), was then replaced to each well. At the indicated times, 10 μl of MTT (5 mg/ml) was added and cells were incubated at 37° C. for 4 hours. The tetrazolium crystals were solubilized by the addition of 10% SDS in 0.01 N HCl. After overnight incubation at 37° C., the absorbance was measured at 570 nm using a 96-well spectrophotometric microplate reader. Survival/proliferation rate was calculated as follows (A570 treatment/A570 control×100). All determinations were carried out in triplicate.

[6] = tested on: caspase-3; assay: Western blot of caspase-3 cleavage in HCA-7 cells; format: cell-based, human; settings: licofelone 150 μM, 0-24 hours, maximum after 24 hours
Procedure: (§2) For Western blot analysis, cells were seeded in a 25 cm^2 flask at the density of 1.5×10^6 and grown in complete medium for 24 hours. At the end of incubation cells were scraped from flasks and lysed in a buffer containing 10 mM Tris, 1% SDS, 1 mM Na orthovanadate and a protease inhibitors cocktail. Samples containing 50 μg of protein were subjected to gel electrophoresis in 10% polyacrylamide gels in the presence of SDS. The proteins were then transferred electrophoretically to a Hybond-C nitrocellulose membrane at 300 V for 1 h at 4° C. The membrane was subsequently immersed in 0.5% Ponceau S in 1% acetic acid to stain the proteins and to confirm that equal amounts of protein were loaded in each lane and transferred efficiently. After incubation overnight in a blocking solution containing 5% bovine skim milk powder in 10 mM phosphate buffered saline (PBS, pH 7.4), the nitrocellulose membrane was incubated for 1 h with primary antibodies: anti COX-1, anti COX-2 and anti 5-LOX were used in HCA-7, Caco-2 and LS174T at a dilution of 1:500; anti Caspase-3 and anti PARP-1 were used in HCA-7 at the dilution of 1:250. The membrane was then washed with PBS buffer to remove the excess unbound antibodies and incubated for 1 h with HRP-conjugated secondary antibody, at a dilution of 1:1000. Detection was performed by using the ECL procedure developed by Amersham. […]

[7] = tested on: PARP; assay: Western blot of PARP cleavage in HCA-7 cells; format: cell-based, human; settings: licofelone 150 μM, almost complete at 24 hours
Procedure: as §2

[8] = tested on: PGE2 production by HCA-7 cells; assay: PGE2 level in HCA-7 culture medium, enzyme immunoassay; format: cell-based, human; settings: all doses tested (100-150 μM), 24 hours
Procedure: as §1

## CC1(C)Cc2c(-c3ccccc3)c(-c3ccc(Cl)cc3)c(CC(=O)O)n2C1 [licofelone, [2,2-dimethyl-6-(4-chlorophenyl)-7-phenyl-2,3-dihydro-1H-pyrrolizine-5 yl]-acetic acid]
[1]
  reduction of LTB4 levels with respect to untreated cells: 85%
[2]; dose 2.5 mg/kg
  plasma ML3000 concentration maintained: above 100 ng/mL
[2]; dose 5 mg/kg
  plasma ML3000 concentration maintained: > 200 ng/mL
[3]
  accumulation of sub-G1 phase cells, maximum: 85%
[4]
  appearance of membrane blebbing after administration of the drug: 10 to 12 h
[4]; Hoechst staining
  morphological changes of nuclei after drug addition: 16-18 hours
[5]; 150 μM licofelone, 48 hours, exogenous PGE2 and LTB4 added
  reversal of antiproliferative effect by exogenous PGE2 or LTB4: neither PGE2 or LTB4 administration was able to reverse the antiproliferative effect
[5]; Homo sapiens, HCA-7, after 24 hours of treatment
  IC50: 125 ± 6.25 µM
[5]; Homo sapiens, HCA-7, after 48 hours of treatment
  IC50: 72 ± 3.6 µM
[5]; Homo sapiens, HCA-7, licofelone 150 μM, read-out: inhibition of HCA-7 growth
  inhibition at 150 µM: ~90%
[6]
  cleavage of 34-kDa pro-enzyme caspase-3 to active 17-kDa form: strong and time-dependent cleavage
[7]
  degradation of PARP (85-kDa band): marked degradation of PARP
[8]
  inhibition of PGE2 production: strongly inhibited PGE2 production
